{
  "source": "paper PMC6381099",
  "about": "“Hydroxyoleoside-type seco-iridoids from Symplocos cochinchinensis and their insulin mimetic activity” (Scientific Reports, 2019)",
  "molecular_target": "T1, PTP1B (protein tyrosine phosphatase 1B) (Homo sapiens, UniProt P18031)",
  "T1 construct": "gene PTPN1",
  "T1 sequence (P18031 1-435)": "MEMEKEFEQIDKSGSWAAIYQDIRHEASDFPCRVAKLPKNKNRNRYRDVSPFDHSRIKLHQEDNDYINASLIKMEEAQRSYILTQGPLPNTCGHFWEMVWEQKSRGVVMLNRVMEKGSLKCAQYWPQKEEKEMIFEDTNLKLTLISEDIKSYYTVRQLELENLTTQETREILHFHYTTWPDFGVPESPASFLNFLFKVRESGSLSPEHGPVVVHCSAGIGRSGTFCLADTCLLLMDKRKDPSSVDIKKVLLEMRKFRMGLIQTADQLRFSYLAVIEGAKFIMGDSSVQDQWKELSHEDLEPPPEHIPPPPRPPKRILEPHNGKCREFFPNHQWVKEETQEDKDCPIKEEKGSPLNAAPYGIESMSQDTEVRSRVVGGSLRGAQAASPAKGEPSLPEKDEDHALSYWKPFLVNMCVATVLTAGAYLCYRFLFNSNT",
  "experiment": "p-NPP hydrolysis assay with recombinant human PTP1B; Lineweaver-Burk kinetics",
  "assay_type": "biochemical",
  "data": [
    {"smiles": "O=C(O)C[C@@H]1C(C(=O)O)=CO[C@@H](O[C@@H]2O[C@H](CO)[C@@H](O)[C@H](O)[C@H]2O)C1=CCOC(=O)/C=C/c1ccc(O)cc1", "note": "[compound 3, Symplocochinside C]", "values": [
      {"measurement": "IC50", "result": "19.5 ± 0.76", "unit": "µM"}
    ]}
  ]
}
